For one test, the target named is T1, human mPGES-1 (Homo sapiens, UniProt O14684).
T1 construct: made in house; host or cells: COS-1 cells (transient transfection; microsomal fraction used as enzyme)
T1 sequence (O14684 1-152): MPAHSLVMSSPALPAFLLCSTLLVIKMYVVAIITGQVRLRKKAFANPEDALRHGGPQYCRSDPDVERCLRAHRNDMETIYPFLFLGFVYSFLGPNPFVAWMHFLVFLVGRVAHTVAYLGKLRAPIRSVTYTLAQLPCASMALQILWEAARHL
Briefly: Test for mPGES-1 inhibitory activity (microsomal enzyme, PGE2 EIA). The note with it: microsomes from COS-1 cells transfected with human mPGES-1 cDNA; substrate PGH2 1 μM; 4° C., 4 minutes; PGE2 measured by EIA; read-out: h mPGES1 IC50. Type of test: biochemical. The procedure, abridged: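 Enzyme source was microsomes from COS-1 cells transiently expressing human mPGES-1, in sodium phosphate pH 7.2 with 2.5 mM GSH, 1 mM EDTA and 2% DMSO final. After a 15 min preincubation with compound at 4 °C, 1 μM PGH2 (final) reacted for 4 min at 4 °C.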
Take `Cc1cc(=O)[nH]c(-c2c(C(F)(F)F)ccc(CNC(=O)[C@H]3CC[C@H](OCc4ccc(Cl)cc4F)CC3)c2F)n1` [Example 121, trans-4-[(4-chloro-2-fluorobenzyl)oxy]-N-[2-fluoro-3-(4-methyl-6-oxo-1,6-dihydropyrimidin-2-yl)-4-(trifluoromethyl)benzyl]cyclohexane-1-carboxamide]: the IC50 was less than 1 nM.
Still for that read-out and setting: for `Cc1cc(=O)[nH]c(-c2c(C(F)(F)F)ccc(CNC(=O)C3CCN(c4ccc(Cl)cc4)CC3)c2F)n1` [Example 76, 1-(4-chlorophenyl)-N-[2-fluoro-3-(4-methyl-6-oxo-1,6-dihydropyrimidin-2-yl)-4-(trifluoromethyl)benzyl]piperidine-4-carboxamide] the value was 31 nM; for `Cc1cc(=O)[nH]c(-c2c(C(F)(F)F)ccc(CNC(=O)[C@H]3CC[C@H](OCc4ccc(F)c(F)c4)CC3)c2F)n1` [Example 107, trans-4-[(3,4-difluorobenzyl)oxy]-N-[2-fluoro-3-(4-methyl-6-oxo-1,6-dihydropyrimidin-2-yl)-4-(trifluoromethyl)benzyl]cyclohexane-1-carboxamide], 13 nM; for `Cc1nc(-c2c(C(F)(F)F)ccc(CNC(=O)[C@H]3CC[C@H](OCc4cccc(C(F)(F)F)c4)CC3)c2F)[nH]c(=O)c1F` [Example 130, trans-N-[2-fluoro-3-(5-fluoro-4-methyl-6-oxo-1,6-dihydropyrimidin-2-yl)-4-(trifluoromethyl)benzyl]-4-{[3-(trifluoromethyl)benzyl]oxy}cyclohexane-1-carboxamide], less than 1 nM.
In the case of `CCc1nc(-c2c(C(F)(F)F)ccc(CNC(=O)[C@H]3CC[C@H](OCc4ccccc4Cl)CC3)c2F)[nH]c(=O)c1F` [Example 124, trans-4-[(2-chlorobenzyl)oxy]-N-[3-(4-ethyl-5-fluoro-6-oxo-1,6-dihydropyrimidin-2-yl)-2-fluoro-4-(trifluoromethyl)benzyl]cyclohexane-1-carboxamide], the IC50 is less than 1 nM.
Same read-out and setting: then `O=C(NCc1ccc(C(F)(F)F)c(-c2nc(C(F)(F)F)cc(=O)[nH]2)c1)C1CCN(c2ccc(C(F)(F)F)cn2)CC1` [Example 50, N-{3-[6-oxo-4-(trifluoromethyl)-1,6-dihydropyrimidin-2-yl]-4-(trifluoromethyl)benzyl}-1-[5-(trifluoromethyl)pyridin-2-yl]piperidine-4-carboxamide], with less than 1 nM; and `Cc1nc(-c2c(C(F)(F)F)ccc(CNC(=O)[C@H]3CC[C@H](OCc4ccccc4Cl)CC3)c2F)[nH]c(=O)c1F` [Example 102, trans-4-[(2-chlorobenzyl)oxy]-N-[2-fluoro-3-(5-fluoro-4-methyl-6-oxo-1,6-dihydropyrimidin-2-yl)-4-(trifluoromethyl)benzyl]cyclohexane-1-carboxamide], with less than 1 nM; and `O=C(NCc1ccc(C(F)(F)F)c(-c2nc(C(F)(F)F)cc(=O)[nH]2)c1F)C1CCN(c2ncc(Cl)cc2Cl)CC1` [Example 30, 1-(3,5-dichloropyridin-2-yl)-N-{2-fluoro-3-[6-oxo-4-(trifluoromethyl)-1,6-dihydropyrimidin-2-yl]-4-(trifluoromethyl)benzyl}piperidine-4-carboxamide], with less than 1 nM.
On to `O=c1cc(C(F)F)nc(-c2c(C(F)(F)F)ccc(CNC(=O)[C@H]3CC[C@H](OCc4ccc(Cl)cc4)CC3)c2F)[nH]1` [Example 116, trans-4-[(4-chlorobenzyl)oxy]-N-{3-[4-(difluoromethyl)-6-oxo-1,6-dihydropyrimidin-2-yl]-2-fluoro-4-(trifluoromethyl)benzyl}cyclohexane-1-carboxamide], for which the IC50 came to 10 nM.

Staying with this test, now noted: microsomes of COS-1 cells transfected with human mPGES-1 cDNA; PGH2 1 μM; 4° C., 4 minutes; PGE2 by EIA; read-out: h mPGES1 IC50.
On to `CCc1nc(-c2c(C(F)(F)F)ccc(CNC(=O)[C@H]3C[C@H](OCc4cccc(Cl)c4F)C3)c2F)[nH]c(=O)c1F` [Example 242, trans-3-[(3-chloro-2-fluorobenzyl)oxy]-N-[3-(4-ethyl-5-fluoro-6-oxo-1,6-dihydropyrimidin-2-yl)-2-fluoro-4-(trifluoromethyl)benzyl]cyclobutane-1-carboxamide], for which the IC50 was less than 1 nM.
For the compound `Cc1cc(=O)[nH]c(-c2c(C(F)(F)F)ccc(CNC(=O)[C@H]3C[C@H](OCc4ccc(Cl)cc4)C3)c2F)n1` [Example 180, trans-3-[(4-chlorobenzyl)oxy]-N-[2-fluoro-3-(4-methyl-6-oxo-1,6-dihydropyrimidin-2-yl)-4-(trifluoromethyl)benzyl]cyclobutane-1-carboxamide], the IC50 amounted to 1.7 nM.
In the case of `O=c1cc(C(F)F)nc(-c2c(C(F)(F)F)ccc(CNC(=O)[C@H]3C[C@H](OCc4ccccc4C(F)(F)F)C3)c2F)[nH]1` [Example 164, trans-N-{3-[4-(difluoromethyl)-6-oxo-1,6-dihydropyrimidin-2-yl]-2-fluoro-4-(trifluoromethyl)benzyl}-3-{[2-(trifluoromethyl)benzyl]oxy}cyclobutane-1-carboxamide], the IC50 is less than 1 nM.
The same measure, in the same setting: for `O=c1cc(C(F)F)nc(-c2c(C(F)(F)F)ccc(CNC(=O)[C@H]3C[C@H](OCc4ccc(F)cc4Cl)C3)c2F)[nH]1` [Example 173, trans-3-[(2-chloro-4-fluorobenzyl)oxy]-N-{3-[4-(difluoromethyl)-6-oxo-1,6-dihydropyrimidin-2-yl]-2-fluoro-4-(trifluoromethyl)benzyl}cyclobutane-1-carboxamide] the value was less than 1 nM; for `CCc1cc(=O)[nH]c(-c2c(C(F)(F)F)ccc(CNC(=O)[C@H]3C[C@H](OCc4cccc(F)c4)C3)c2F)n1` [Example 205, trans-N-[3-(4-ethyl-6-oxo-1,6-dihydropyrimidin-2-yl)-2-fluoro-4-(trifluoromethyl)benzyl]-3-[(3-fluorobenzyl)oxy]cyclobutane-1-carboxamide], 14 nM.
As for `O=C(NCc1ccc(C(F)(F)F)c(-c2nc(C(F)(F)F)cc(=O)[nH]2)c1F)C1Cc2ccccc2C1` [Example 280, N-{2-fluoro-3-[6-oxo-4-(trifluoromethyl)-1,6-dihydropyrimidin-2-yl]-4-(trifluoromethyl)benzyl}-2,3-dihydro-1H-indene-2-carboxamide], the IC50 was less than 1 nM.
Take `Cc1cc(=O)[nH]c(-c2c(C(F)(F)F)ccc(CNC(=O)[C@H]3C[C@H](OCc4ccccc4C(F)(F)F)C3)c2F)n1` [Example 181, trans-N-[2-fluoro-3-(4-methyl-6-oxo-1,6-dihydropyrimidin-2-yl)-4-(trifluoromethyl)benzyl]-3-{[2-(trifluoromethyl)benzyl]oxy}cyclobutane-1-carboxamide]: the IC50 was determined as 19 nM.
As for `O=C(NCc1ccc(C(F)(F)F)c(-c2nc(C(F)(F)F)cc(=O)[nH]2)c1F)C1CN(C(=O)Cc2ccc(F)cc2)C1` [Example 276, N-{2-fluoro-3-[6-oxo-4-(trifluoromethyl)-1,6-dihydropyrimidin-2-yl]-4-(trifluoromethyl)benzyl}-1-[2-(4-fluorophenyl)acetyl]azetidine-3-carboxamide], the IC50 was 24 nM.
Turning to `CCc1cc(=O)[nH]c(-c2c(C(F)(F)F)ccc(CNC(=O)[C@H]3C[C@H](OCc4ccc(C(F)(F)F)cc4)C3)c2F)n1` [Example 200, trans-N-[3-(4-ethyl-6-oxo-1,6-dihydropyrimidin-2-yl)-2-fluoro-4-(trifluoromethyl)benzyl]-3-{[4-(trifluoromethyl)benzyl]oxy}cyclobutane-1-carboxamide], the IC50 was 6.5 nM.

The term IC50 denotes the concentration needed to halve the response being measured.

For the origin of these results see patent publication US20250340557A1, “PYRIMIDINE DERIVATIVE” (ASKA PHARMACEUTICAL CO., LTD., priority 2022, published 2025).
